According to US20120022116A1, “COMPOSITIONS AND METHODS FOR THE TREATMENT OF PATHOLOGICAL CONDITION(S) RELATED TO GPR35 AND/OR GPR35-HERG COMPLEX” (priority 2010, published 2012):
Entries after “also recorded” stand apart in the source; their conditions may differ. Like-named read-outs stand apart in the source and are kept apart here.

Legend:
HEK-hERG cells [1] = assay: DMR assay in HEK-hERG cells; conditions: zaprinast 10 μM
[2] = tested on: HEK293 cells expressing only Gqo5 or GPR35; assay: Ca2+ mobilization assay in HEK293 cells expressing only Gqo5 or only GPR35; type: cell-based, human; conditions: engineered HEK293, 10 μM
Procedure: (§1) Ca^2+ flux assay with transient transfected cells were carried out in 96-well plates (Corning Inc, Cat#3664). HEK293 cells (25000 cells/well) were seeded on day 1. Cells were transfected with either myc-GPR35 or HA-Gqo5 or co-transfected with both plasmids (myc-GPR35/HA-Gqo5 DNA ratio 2:1) using Lipofectamine LTX (Invitrogen) on day 2. Ca^2+ flux assay was performed 24 hours after transfection.
as §1, with “assays” for “assay”, “assays were” for “assay was”

HEK-hERG cells [3] = tested on: HEK-hERG cells
GPR35 [4] = molecular target: T1, GPR35 (Homo sapiens, UniProt Q9HC97); assay: Ca2+ mobilization assay (Fluo-4) in HEK-GPR35-Gqo5 cells; type: cell-based; conditions: for Ca2+ moblization (HEK-GPR35-Gqo5): HEK293 cells co-expressing GPR35 and Gqo5, Fluo-4, compounds 10 μM; for Ca2+ mobilization signal in cells co-expressing GPR35 and Gqo5: engineered HEK293, 10 μM
T1 construct: myc; expressed in transfected cells; host or cells: HEK293, transient co-transfection (Lipofectamine LTX)
T1 sequence (Q9HC97 whole entry): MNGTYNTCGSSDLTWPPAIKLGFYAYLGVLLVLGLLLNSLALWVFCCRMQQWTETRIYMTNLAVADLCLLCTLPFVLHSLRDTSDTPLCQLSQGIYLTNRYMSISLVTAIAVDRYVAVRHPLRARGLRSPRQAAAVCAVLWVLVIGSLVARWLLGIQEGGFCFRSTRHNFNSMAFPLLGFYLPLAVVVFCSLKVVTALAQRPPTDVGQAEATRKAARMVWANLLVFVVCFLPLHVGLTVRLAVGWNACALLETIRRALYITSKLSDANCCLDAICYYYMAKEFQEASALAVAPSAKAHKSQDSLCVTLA

hERG channel [5] = molecular target: T2, hERG channel (Homo sapiens, UniProt Q12809); assay: Automated patch clamp recording of hERG tail current (IonWorks); conditions: hERG tail current ratio post/pre-compound, 50 uM
T2 sequence (Q12809 whole entry): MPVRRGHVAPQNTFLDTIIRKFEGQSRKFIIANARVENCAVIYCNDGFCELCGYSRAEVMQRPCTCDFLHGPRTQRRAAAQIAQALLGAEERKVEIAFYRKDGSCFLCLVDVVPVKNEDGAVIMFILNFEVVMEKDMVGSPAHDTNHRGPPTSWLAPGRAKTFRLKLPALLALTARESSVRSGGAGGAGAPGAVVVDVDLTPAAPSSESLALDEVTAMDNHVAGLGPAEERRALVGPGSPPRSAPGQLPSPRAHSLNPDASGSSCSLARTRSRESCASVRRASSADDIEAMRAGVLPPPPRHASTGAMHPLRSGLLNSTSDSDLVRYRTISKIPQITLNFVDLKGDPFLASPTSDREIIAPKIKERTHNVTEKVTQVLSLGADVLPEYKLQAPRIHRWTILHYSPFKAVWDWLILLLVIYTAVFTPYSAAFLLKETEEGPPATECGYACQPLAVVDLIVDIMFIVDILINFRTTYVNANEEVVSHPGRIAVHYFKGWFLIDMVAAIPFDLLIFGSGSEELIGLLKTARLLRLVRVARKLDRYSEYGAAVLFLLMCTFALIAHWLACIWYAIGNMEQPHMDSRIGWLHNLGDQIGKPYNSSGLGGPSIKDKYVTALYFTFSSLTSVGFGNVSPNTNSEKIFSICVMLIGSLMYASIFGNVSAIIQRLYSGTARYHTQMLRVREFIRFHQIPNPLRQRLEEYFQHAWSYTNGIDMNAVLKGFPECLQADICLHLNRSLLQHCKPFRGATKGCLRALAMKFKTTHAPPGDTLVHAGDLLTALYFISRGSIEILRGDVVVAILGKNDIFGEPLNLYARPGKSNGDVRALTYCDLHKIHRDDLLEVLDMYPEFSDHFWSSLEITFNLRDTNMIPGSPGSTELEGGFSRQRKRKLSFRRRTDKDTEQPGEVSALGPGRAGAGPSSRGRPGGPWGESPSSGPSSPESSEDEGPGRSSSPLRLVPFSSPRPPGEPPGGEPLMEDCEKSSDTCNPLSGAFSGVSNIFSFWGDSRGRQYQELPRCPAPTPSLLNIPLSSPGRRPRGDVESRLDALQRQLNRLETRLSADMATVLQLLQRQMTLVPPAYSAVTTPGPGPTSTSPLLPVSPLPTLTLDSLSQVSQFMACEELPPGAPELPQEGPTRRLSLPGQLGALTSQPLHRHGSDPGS

GPR35 [6] = assay: GPR35 receptor internalization, immunofluorescence confocal imaging in HT29 cells; type: cell-based, human; conditions: anti-GPR35 antibody
Procedure: HT29 cells were plated on a 8-well chamber slide (10,000 cells/well) and incubated at 37° C. for 24 hrs. Next day, cells were fixed with 4% formaldehyde in 1×PBS for 15 min, followed by blocking and permeabilization in a buffer that contains 4% goat serum, 0.1% BSA, 0.1% Triton X100 in 1×PBS for 2 hrs. After 5 min wash with PBS, fixed cells were incubated with primary antibody anti-GPR35 (Abcam) (1:300) in 3% BSA/PBS buffer for 24 hrs, followed by incubation with secondary antibody Alexa Fluor® 488 goat anti-rabbit IgG (H+L) (Invitrogen) (1:250) in 3% BSA/PBS for 1 hr at room temperature. Cells were finally washed once with PBS and sealed with 1.5 mm thick glass cover-slip. Dried slides were stored at 4° C. until imaging. Confocal imaging was performed with Zeiss confocal microscope Axiovert 40. […] Confocal images were analyzed using MacBiophotonics Image J software (http://www.macbiophotonics.ca/downloads.htm).
HT29 cells were plated on a 8-well chamber slide (10,000 cells/well) and incubated at 37° C. for 24 hrs. […] Confocal images were analyzed using MacBiophotonics Image J software (http://www.macbiophotonics.ca/downloads.htm).
HT29 cells were plated on a 8-well chamber slide (10,000 cells/well) and incubated at 37° C. for 24 hrs. […] Confocal images were analyzed using MacBiophotonics Image J software (http://www.macbiophotonics.ca/downloads.htm). […]

hERG channel [7] = assay: Cross-desensitization DMR assay against hERG activator mallotoxin-induced DMR in HT29 cells
HT29 cells [8] = assay: cAMP-Glo assay in HT29 cells; type: cell-based, human; conditions: for increase in intracellular cAMP concentration: HT29 cells, Gs readout; for suppression in intracellular cAMP concentration: forskolin co-stimulated HT29 cells, Gi readout
Procedure: (§2) Cells were plated in 384well plates (BD Bioscience, Cat#354660) (10000 cells/well for HEK293, 20000 cells/well for HT29). Cells were cultured in complete growth medium overnight. The next day cAMP-Glo assay was performed according to manufacturer's instruction (Promega, Cat#V1502). Cells were incubated with 20 μM compounds in induction buffer with or without 0.5 μM or 5 μM forskolin for 30 minutes before adding lysis buffer. Luminescence was measured using Tecan SafireII reader.
as §2, with “384 well” for “384well”, “Cat# 354660)” for “Cat#354660)”, “Cat#V 1502).” for “Cat#V1502).”
as §2, with “in 384 well” for “in 384well”, “Bioscience, Cat# 354660)” for “Bioscience, Cat#354660)”, “HT29). The cells” for “HT29). Cells”, “day a” for “day”, “Cat#V1502). The cells” for “Cat#V1502). Cells”

GPR35 [9] = assay: DMR desensitization / antagonism mode against GPR35 agonist-induced DMR in HT29 cells; type: cell-based, human; conditions: for Desenstization to GPR35 agonist: HT29 cells pretreated with compound, then GPR35 agonist
HEK-293 cells = assay: DMR assay in parental HEK-293 cells; type: cell-based, human; conditions: zaprinast 10 μM
HT29 cells [10] = assay: Fluo-4 Ca2+ mobilization assay in native HT29 cells; type: cell-based, human; conditions: Fluo-4 assay, 10 micromolar
Procedure: (§3) Fluo-4 Direct™ Calcium Assay Kit was purchased from Invitrogen (Starter pack, Cat. no. F10471). HEK293 cells (15000 cells/well) and HT29 cells (30000 cells/well) were seeded in polyD-lysine coated 384well plates (Corning Inc., Cat#3845), culture overnight at 37° C. The next day, Ca^2+ flux assay was performed following manufacturer's instruction and fluorescence ratio (340 nm/380 nm) was measured on FDSS (Functional Drug Screening System, Hamamatsu Photonics, Japan). Compounds were prepared as 10× stock (final concentration 10 μM) in the Ca^2+ assay buffer.
as §3, with “384 well” for “384well”, “Cat#3845) and cultured” for “Cat#3845), culture”, “day, the” for “day,”

hERG channel [11] = molecular target: T2, hERG channel; set-up: expressed in transfected cells; conditions: 10 μM; cited from earlier work
hERG channel [12] = tested on: hERG channel
hERG channel [13] = molecular target: T2, hERG channel
[14] = listed as 6-bromo-3-methylthieno[3,2-b]thiophene-2-carboxylic acid

Row | Structure (SMILES) | Ca2+ mobilization signal in cells expressing only Gqo5 or GPR35 [2] | Ca2+ moblization (HEK-GPR35-Gqo5) (GPR35 [4]) | Ca2+ mobilization signal in cells co-expressing GPR35 and Gqo5 (GPR35 [4]) | Electrophysiology (HEK-hERG) (hERG channel [5]) | increase in intracellular cAMP concentration (HT29 cells [8]) | suppression in intracellular cAMP concentration (HT29 cells [8]) | Desenstization to GPR35 agonist (GPR35 [9]) | desensitization / attenuation of the GPR35 agonist (zaprinast, NPPB) DMR signal in HT29 cells (GPR35 [9]; pretreatment, zaprinast 400 nM) | DMR signal in HEK-293 cells (HEK-293 cells) | Desenstization to hERG activator (hERG channel [12]) | further results
1 | CCCOc1ccccc1-c1nc2nn[nH]c2c(=O)[nH]1 [zaprinast] | failed to cause any obvious Ca^2+ mobilization signal; also recorded: not in either parental cell, or the engineered cells expressing either GPR35 or Gqo5 | active | triggered quite obvious Ca^2+ signal; also recorded: triggered a detectable Ca^2+ mobilization signal; also recorded: active | inactive | neither zaprinast nor 6-bromo-3-methylthieno[3,2-b]thiophene-2-carboxylic acid was able to cause increase in intracellular cAMP concentration | neither zaprinast nor 6-bromo-3-methylthieno[3,2-b]thiophene-2-carboxylic acid cause any suppression in intracellular cAMP concentration | desenstized | dose-dependently caused desensitization | net-zero DMR signal | – | DMR signal in HEK-hERG cells (HEK-hERG cells [1]): net-zero DMR signal; impact on the mallotoxin DMR signal in HEK-hERG cells (HEK-hERG cells [3]): little or no impact; GPR35 receptor internalization (GPR35 [6]): underwent internalization; also recorded: caused receptor internalization; also recorded: significant receptor internalization; attenuation of the mallotoxin DMR signal in HT29 cells (hERG channel [7]; pretreatment, mallotoxin 16 micromolar): dose-dependently, partially attenuated; also recorded: partially attenuate; also recorded: dose-dependently desensitized; Ca2+ mobilization signal in HT29 cells (HT29 cells [10]): failed to cause any significant Ca^2+ mobilization; also recorded: unable to cause any detectable Ca^2+ signal; also recorded: did not result in any detectable Ca^2+ mobilization signal; Ca2+ mobilization signal in HT29 cells (HT29 cells [10]; listed as Zaprinast): did not result in any detectable Ca^2+ mobilization signal
2 | CC(=O)c1c(O)c(C)c(O)c(Cc2c(O)c3c(c(C(=O)/C=C/c4ccccc4)c2O)OC(C)(C)C=C3)c1O [Mallotoxin, mallotoxin] | – | – | – | activator | – | – | desenstized | – | no detectable DMR signal (i.e., net-zero DMR) | – | shift of the half maximal activation voltage (V1/2) to the hyperpolarizing direction (hERG channel [11]): more than 25 mV; Desenstization to hERG activator (hERG channel [7]; HT29 cells pretreated with compound, then hERG activator mallotoxin): desenstized; desensitization / attenuation of the GPR35 agonist (zaprinast, NPPB) DMR signal in HT29 cells (GPR35 [9]): dose-dependently, partially inhibited; also recorded: partially attenuate; also recorded: dose-dependently desensitized
3 | Cc1c(C(=O)O)sc2c(Br)csc12 [Compound 13, 3-methyl-6-bromo-thieno[3,2-b]thiophene-2-carboxylic acid] | failed to cause any obvious Ca^2+ mobilization signal | inactive | triggered quite obvious Ca^2+ signal | activator | neither zaprinast nor 6-bromo-3-methylthieno[3,2-b]thiophene-2-carboxylic acid was able to cause increase in intracellular cAMP concentration | neither zaprinast nor 6-bromo-3-methylthieno[3,2-b]thiophene-2-carboxylic acid cause any suppression in intracellular cAMP concentration | desenstized | caused desensitization | – | – | GPR35 receptor internalization (GPR35 [6]; [14]): underwent internalization; also recorded: caused receptor internalization; Ca2+ mobilization signal in HT29 cells (HT29 cells [10]; [14]): unable to cause any detectable Ca^2+ signal
4 | O=[N+]([O-])c1cc2nc(O)c(O)nc2cc1[N+](=O)[O-] [DNQX] | – | active | active | – | – | – | desenstized | – | – | partially desenstized | Electrophysiology (HEK-hERG) (hERG channel [13]): inactive
5 | Cc1cccc(Nc2ccccc2C(=O)O)c1C [Mefenamic Acid] | – | inactive | – | – | – | – | desenstized | – | – | partially desenstized | –
